Measured values as given in publication PMC7205606, “Characterization of a toxin-antitoxin system in Mycobacterium tuberculosis suggests neutralization by phosphorylation as the antitoxicity mechanism” (Communications Biology, 2020).

Legend:
TakA (Rv1044), MBP-TakA = TakA (Rv1044), MBP-TakA (Mycobacterium tuberculosis, UniProt P96357)
TglT (Rv1045) = TglT (Rv1045) (Mycobacterium tuberculosis, UniProt P96356)
Sequence of TglT (Rv1045) (P96356 1-293 limits assumed): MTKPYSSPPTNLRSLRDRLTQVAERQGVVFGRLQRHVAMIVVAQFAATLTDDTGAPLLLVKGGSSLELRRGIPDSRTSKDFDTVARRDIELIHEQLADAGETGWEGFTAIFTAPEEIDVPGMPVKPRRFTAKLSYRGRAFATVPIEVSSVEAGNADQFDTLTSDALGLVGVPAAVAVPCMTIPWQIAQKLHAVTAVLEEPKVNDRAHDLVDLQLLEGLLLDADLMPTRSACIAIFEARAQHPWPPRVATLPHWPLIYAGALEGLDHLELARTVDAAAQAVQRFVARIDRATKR

Sequence of TakA (Rv1044), MBP-TakA (P96357 entry or part of it): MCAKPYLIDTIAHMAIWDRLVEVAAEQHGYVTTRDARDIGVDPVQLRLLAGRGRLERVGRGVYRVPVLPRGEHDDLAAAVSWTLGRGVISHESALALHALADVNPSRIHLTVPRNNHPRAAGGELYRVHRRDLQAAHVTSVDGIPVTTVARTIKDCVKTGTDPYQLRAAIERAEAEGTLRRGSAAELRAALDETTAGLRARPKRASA

| Compound | in vitro kinase assay, 32P transfer to TglT, SDS-PAGE (TakA (Rv1044), MBP-TakA) | native-PAGE autoradiography with unlabelled NTP competition (TglT (Rv1045)) |
| --- | --- | --- |
| Nc1ncnc2c1ncn2[C@@H]1O[C@H](COP(=O)(O)OP(=O)(O)OP(=O)(O)O)[C@@H](O)[C@H]1O [ATP] | When incubating MBP-TakA with TglT (Fig. 5a), we detected radioactively labeled TglT species in SDS-PAGE. | – |
| Nc1nc2c(ncn2[C@@H]2O[C@H](COP(=O)(O)OP(=O)(O)OP(=O)(O)O)[C@@H](O)[C@H]2O)c(=O)[nH]1 [GTP] | – | We conclude that TglT specifically binds GTP. |
